Like-named read-outs stand apart in the source and are kept apart here.
Tests used:
α-Glucosidase [1] = biological target: T1, α-Glucosidase (Saccharomyces cerevisiae, UniProt P53341); assay: biochemical; details: for inhibition at 2 µg/mL / inhibition at 4 µg/mL / inhibition at 6 µg/mL / inhibition at 8 µg/mL / inhibition at 10 µg/mL: read-out: α-glucosidase inhibition rate;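 as to all read-outs here: yeast α-glucosidase premixed with inhibitor in phosphate buffer for 15 min at 37 °C, then a further 15 min reaction with p-NPG substrate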
T1 construct: purchased Sigma (Sigma-Aldrich) G5003

α-glucosidase [2] = details: read-out: IC50 (α-glucosidase inhibitory activity), cited from earlier work
[3] = read-out: IC50 (α-glucosidase inhibitory bioassay), baker's yeast α-glucosidase, p-NPG, pH 6.86, 37 °C

T1 sequence (P53341 whole entry): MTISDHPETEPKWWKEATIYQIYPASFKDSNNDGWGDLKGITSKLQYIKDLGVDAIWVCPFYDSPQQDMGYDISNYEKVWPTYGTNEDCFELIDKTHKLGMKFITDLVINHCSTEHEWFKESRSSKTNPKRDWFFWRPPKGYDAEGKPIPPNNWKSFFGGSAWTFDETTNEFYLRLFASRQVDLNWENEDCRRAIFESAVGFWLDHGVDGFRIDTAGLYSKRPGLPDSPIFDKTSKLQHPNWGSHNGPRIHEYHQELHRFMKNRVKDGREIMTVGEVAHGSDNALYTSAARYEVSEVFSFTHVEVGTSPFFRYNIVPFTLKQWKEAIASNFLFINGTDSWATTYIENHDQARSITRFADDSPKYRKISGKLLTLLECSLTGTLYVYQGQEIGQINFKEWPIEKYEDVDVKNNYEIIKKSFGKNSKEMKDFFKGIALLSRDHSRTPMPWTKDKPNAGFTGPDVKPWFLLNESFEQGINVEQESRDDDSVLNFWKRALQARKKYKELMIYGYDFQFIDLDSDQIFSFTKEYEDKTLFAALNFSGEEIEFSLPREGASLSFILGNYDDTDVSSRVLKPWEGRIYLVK

| Compound | IC50 (α-Glucosidase [1]) [µM] | α-glucosidase inhibitory activity (judgement in words) (α-Glucosidase [1]) | inhibition at 2 µg/mL (α-Glucosidase [1]; concentration 2.0 μg·mL-1) [%] | inhibition at 4 µg/mL (α-Glucosidase [1]; concentration 4.0 μg·mL-1) [%] | inhibition at 6 µg/mL (α-Glucosidase [1]; concentration 6.0 μg·mL-1) [%] | inhibition at 8 µg/mL (α-Glucosidase [1]; concentration 8.0 μg·mL-1) [%] | inhibition at 10 µg/mL (α-Glucosidase [1]; concentration 10.0 μg·mL-1) [%] | IC50 (α-glucosidase [2]; compound isolated from Sabia parviflora) [µM] | IC50 (α-Glucosidase [1]; [3]) [µM] | inhibition at 2 µg/mL (α-Glucosidase [1]) [%] | inhibition at 4 µg/mL (α-Glucosidase [1]) [%] | inhibition at 6 µg/mL (α-Glucosidase [1]) [%] | inhibition at 8 µg/mL (α-Glucosidase [1]) [%] | inhibition at 10 µg/mL (α-Glucosidase [1]) [%] | IC50 (α-glucosidase [2]; compound isolated from Buddleja saligna) [µM] | IC50 (α-Glucosidase [1]; baker's yeast α-glucosidase, p-NPG, pH 6.86, 37 °C, read-out: IC50 (α-glucosidase inhibitory bioassay)) [µM] | IC50 (α-glucosidase [2]; compounds isolated from Coffea canephora) [µM] |
| --- | --- | --- | --- | --- | --- | --- | --- | --- | --- | --- | --- | --- | --- | --- | --- | --- | --- |
| C=C(C)[C@@H]1CC[C@]2(C)CC[C@]3(C)[C@H](CC[C@@H]4[C@@]5(C)CC[C@H](O)C(C)(C)[C@@H]5CC[C@]43C)[C@@H]12 [Compound 4, lupeol] | 19.2 ± 0.17 | significant inhibitory activities | 12.5 | 25.1 | 38.6 | 49.2 | 58.4 | 452 ± 5.3 | – | – | – | – | – | – | – | – | – |
| CC(=O)O[C@H]1CC[C@]2(C)[C@H]3CC[C@@H]4[C@@H]([C@@](C)(O)CCC=C(C)C)CC[C@@]4(C)[C@]3(C)CC[C@H]2C1(C)C [Compound 8, dammar-24-ene-3β-acetoxy-20S-ol] | – | – | 3.7 | 6.2 | 8.1 | 10.2 | 11.1 | – | < 100 | – | – | – | – | – | – | – | – |
| C[C@H]1O[C@H](O[C@H]2[C@H](O)[C@@H](O)[C@@H](O[C@H]3[C@H](O)[C@@H](O)C(O)O[C@@H]3CO)O[C@@H]2CO)[C@H](O)[C@@H](O)[C@@H]1N[C@H]1C=C(CO)[C@@H](O)[C@H](O)[C@H]1O (stereo partly shown) [acarbose, reference compound] | – | – | – | – | – | – | – | – | – | 11.1 | 25.3 | 37.9 | 52.4 | 65.7 | – | – | – |
| CC[C@H](/C=C/[C@@H](C)[C@H]1CC[C@H]2[C@@H]3CC=C4C[C@@H](O)CC[C@]4(C)[C@H]3CC[C@]12C)C(C)C [Compound 10, stigmasterol] | – | – | – | – | – | – | – | – | < 100 | 2.4 | 4.3 | 7.1 | 9.6 | 10.1 | – | – | – |
| C=C(C)[C@@H]1CC[C@]2(C(=O)O)CC[C@]3(C)[C@H](CC[C@@H]4[C@@]5(C)CCC(=O)C(C)(C)[C@@H]5CC[C@]43C)[C@@H]12 [Compound 6, betulonic acid] | 17.2 ± 0.27 | significant inhibitory activities | 10.1 | 24.3 | 38.2 | 51.7 | 60.5 | – | – | – | – | – | – | – | 60.1 | – | – |
| CCC(CC[C@@H](C)[C@H]1CC[C@H]2[C@@H]3CCC4=CC(=O)CC[C@]4(C)[C@H]3CC[C@]12C)C(C)C (stereo partly drawn) [Compound 9, (20R)-24-ethylcholest-4-en-3-one] | – | – | – | – | – | – | – | – | < 100 | 6.1 | 8.3 | 12.2 | 15.6 | 17.5 | – | – | – |
| CC(C)(O)[C@@H]1CC[C@]2(C)CC[C@]3(C)[C@H](CC[C@@H]4[C@@]5(C)CCC(=O)C(C)(C)[C@@H]5CC[C@]43C)[C@@H]12 [Compound 5, 20-hydroxy-lupan-3-one] | – | inactive | 7.2 | 9.3 | 11 | 13.4 | 15.8 | – | < 100 | – | – | – | – | – | – | – | – |
| CC1(C)CC[C@]2(C(=O)O)CC[C@]3(C)C(=CC[C@@H]4[C@@]5(C)CC[C@H](O)C(C)(C)[C@@H]5CC[C@]43C)[C@@H]2C1 [Compound 2, oleanolic acid] | – | significant inhibitory activities | – | – | – | – | – | – | – | – | 27.8 | 39.9 | – | 61.5 | – | – | – |
| CC(=O)O[C@H]1CC[C@]2(C)[C@H]3CC=C4[C@@H]5CC(C)(C)CC[C@]5(C(=O)O)CC[C@@]4(C)[C@]3(C)CC[C@H]2C1(C)C [Compound 1, 3-acetyloleanolic acid] | – | significant inhibitory activities | – | – | – | – | – | – | – | 10.1 | 24.3 | 38.2 | 48.3 | 56.5 | – | 16.8 ± 0.23 | 146.9 ± 1.2 |
| CC(C)(O)[C@@H]1CC[C@]2(C)CC[C@]3(C)[C@H](CC[C@@H]4[C@@]5(C)CC[C@H](O)C(C)(C)[C@@H]5CC[C@]43C)[C@@H]12 [Compound 3, monogynol A] | – | inactive | 2.2 | 3.1 | 3.4 | 3.4 | 4.3 | – | – | – | – | – | – | – | – | – | – |

— paper PMC10934055, “α-Glucosidase Inhibitory Phytochemical Components of Chinese Endemic Plant Whitfordiodendron filipes var. tomentosum” (Plants, 2024)
